Experimental data from ChEMBL document CHEMBL1129518, “Synthesis and pharmacologic evaluation of 2-endo-amino-3-exo-isopropylbicyclo[2.2.1]heptane: a potent imidazoline1 receptor specific agent” (J Med Chem, 1996).

How the values were obtained:
[1] = target: T1, Adrenergic receptor alpha-1 (Homo sapiens, UniProt P35348+P25100+P35368); assay: Binding affinity for human brain Alpha-1 adrenergic receptor
T1 sequence (P35348 whole entry): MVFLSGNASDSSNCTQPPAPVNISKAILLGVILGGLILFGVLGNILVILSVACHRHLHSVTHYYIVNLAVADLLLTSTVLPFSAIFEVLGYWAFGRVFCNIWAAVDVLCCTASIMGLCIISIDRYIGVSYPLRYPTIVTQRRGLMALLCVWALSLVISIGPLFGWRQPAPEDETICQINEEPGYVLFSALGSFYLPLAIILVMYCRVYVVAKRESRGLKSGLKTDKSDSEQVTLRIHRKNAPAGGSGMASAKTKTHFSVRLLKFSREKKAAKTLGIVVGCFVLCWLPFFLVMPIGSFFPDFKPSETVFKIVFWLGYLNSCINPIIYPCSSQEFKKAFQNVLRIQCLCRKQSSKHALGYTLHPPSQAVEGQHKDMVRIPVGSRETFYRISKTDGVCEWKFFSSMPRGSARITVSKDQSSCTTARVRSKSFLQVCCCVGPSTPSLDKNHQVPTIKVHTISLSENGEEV
T1 sequence (P25100 whole entry): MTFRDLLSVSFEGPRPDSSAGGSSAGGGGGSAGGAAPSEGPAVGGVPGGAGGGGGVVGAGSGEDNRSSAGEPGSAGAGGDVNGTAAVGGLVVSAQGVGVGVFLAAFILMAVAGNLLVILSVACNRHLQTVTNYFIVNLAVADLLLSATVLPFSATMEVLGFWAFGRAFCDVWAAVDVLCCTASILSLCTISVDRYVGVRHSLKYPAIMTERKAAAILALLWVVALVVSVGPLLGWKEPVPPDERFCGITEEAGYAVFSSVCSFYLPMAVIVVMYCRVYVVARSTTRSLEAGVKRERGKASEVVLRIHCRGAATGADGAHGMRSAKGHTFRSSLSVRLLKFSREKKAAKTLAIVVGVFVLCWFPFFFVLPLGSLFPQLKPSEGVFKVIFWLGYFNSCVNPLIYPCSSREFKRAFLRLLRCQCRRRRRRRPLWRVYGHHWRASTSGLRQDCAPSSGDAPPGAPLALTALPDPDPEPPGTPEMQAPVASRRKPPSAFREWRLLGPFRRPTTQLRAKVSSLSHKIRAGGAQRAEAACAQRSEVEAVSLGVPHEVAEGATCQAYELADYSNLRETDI
T1 sequence (P35368 whole entry): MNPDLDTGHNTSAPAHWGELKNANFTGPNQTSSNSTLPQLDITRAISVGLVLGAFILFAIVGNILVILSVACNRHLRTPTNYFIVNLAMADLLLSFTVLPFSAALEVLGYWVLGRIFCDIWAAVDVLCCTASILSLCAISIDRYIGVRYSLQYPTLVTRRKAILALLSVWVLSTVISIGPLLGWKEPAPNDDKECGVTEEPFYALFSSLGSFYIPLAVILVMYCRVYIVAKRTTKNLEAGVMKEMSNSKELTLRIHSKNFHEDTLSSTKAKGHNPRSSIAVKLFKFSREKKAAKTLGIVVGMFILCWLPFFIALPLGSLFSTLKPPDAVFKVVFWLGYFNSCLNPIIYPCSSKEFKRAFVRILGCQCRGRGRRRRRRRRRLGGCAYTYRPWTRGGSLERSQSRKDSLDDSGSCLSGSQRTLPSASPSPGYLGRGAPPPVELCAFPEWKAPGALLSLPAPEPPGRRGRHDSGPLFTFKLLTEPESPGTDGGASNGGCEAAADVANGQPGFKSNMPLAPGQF

[2] = target: T2, Alpha-2A adrenergic receptor (Homo sapiens, UniProt P08913); assay: Binding affinity for human Alpha-2A adrenergic receptor
T2 sequence (P08913 whole entry): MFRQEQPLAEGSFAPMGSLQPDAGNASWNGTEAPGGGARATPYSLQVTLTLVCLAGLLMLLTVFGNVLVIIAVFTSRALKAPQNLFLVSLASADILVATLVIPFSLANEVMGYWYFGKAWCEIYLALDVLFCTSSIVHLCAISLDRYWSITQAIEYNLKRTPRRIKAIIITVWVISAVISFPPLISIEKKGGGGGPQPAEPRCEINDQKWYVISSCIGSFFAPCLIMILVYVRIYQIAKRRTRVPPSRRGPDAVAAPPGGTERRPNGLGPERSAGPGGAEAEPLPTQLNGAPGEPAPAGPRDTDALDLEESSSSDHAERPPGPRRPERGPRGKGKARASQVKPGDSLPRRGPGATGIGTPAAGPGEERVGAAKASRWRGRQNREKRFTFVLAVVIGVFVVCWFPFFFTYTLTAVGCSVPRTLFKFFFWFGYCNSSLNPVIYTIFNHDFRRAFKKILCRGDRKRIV

[3] = target: T3, Alpha-2C adrenergic receptor (Homo sapiens, UniProt P18825); assay: Binding affinity for human Alpha-2C adrenergic receptor
T3 sequence (P18825 whole entry): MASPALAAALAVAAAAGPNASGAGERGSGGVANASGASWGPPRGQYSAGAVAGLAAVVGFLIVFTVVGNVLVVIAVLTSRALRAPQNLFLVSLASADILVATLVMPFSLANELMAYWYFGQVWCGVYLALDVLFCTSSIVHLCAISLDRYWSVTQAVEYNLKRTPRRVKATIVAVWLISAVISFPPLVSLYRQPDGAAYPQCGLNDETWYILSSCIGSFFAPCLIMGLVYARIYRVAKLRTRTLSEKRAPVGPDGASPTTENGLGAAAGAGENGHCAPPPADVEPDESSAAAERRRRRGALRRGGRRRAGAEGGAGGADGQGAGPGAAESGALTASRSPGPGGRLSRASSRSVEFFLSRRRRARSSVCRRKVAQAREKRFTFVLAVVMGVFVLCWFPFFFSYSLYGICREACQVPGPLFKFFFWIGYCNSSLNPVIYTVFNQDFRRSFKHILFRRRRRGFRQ

[4] = target: T4, Alpha-2B adrenergic receptor (Rattus norvegicus, UniProt P19328); assay: Binding affinity for rat Alpha-2B adrenergic receptor
T4 sequence (P19328 whole entry): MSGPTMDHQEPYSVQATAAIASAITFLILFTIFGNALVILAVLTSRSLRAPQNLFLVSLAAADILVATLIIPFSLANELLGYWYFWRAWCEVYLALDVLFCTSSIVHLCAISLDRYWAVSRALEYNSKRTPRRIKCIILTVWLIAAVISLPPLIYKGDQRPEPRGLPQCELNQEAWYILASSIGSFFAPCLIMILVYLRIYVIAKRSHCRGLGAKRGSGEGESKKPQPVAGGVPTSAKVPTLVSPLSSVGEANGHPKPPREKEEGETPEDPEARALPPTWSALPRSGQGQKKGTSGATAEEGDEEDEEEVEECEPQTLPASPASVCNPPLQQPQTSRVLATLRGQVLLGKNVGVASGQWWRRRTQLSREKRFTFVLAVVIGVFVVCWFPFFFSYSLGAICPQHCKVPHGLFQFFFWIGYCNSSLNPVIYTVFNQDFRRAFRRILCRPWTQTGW

Ki [1] [µM] | Ki [2] [µM] | Ki [3] [µM] | Ki [4] [µM] | SMILES
> 30 |  |  |  | COc1nc(C)nc(Cl)c1NC1=NCCN1 [MOXONIDINE]
> 100 | > 20 | > 20 | > 20 | CC(C)C1C2CCC(C2)C1N (stereo not given)
